Measured values reported in paper PMC12518693, “Potent Fluorescent Probe for Target‐Engagement Studies of Allosteric Pyruvate Kinase Modulators” (Angewandte Chemie (International Ed. in English), 2025).

Experiments:
PKL = PKL (Homo sapiens, UniProt P30613); assay: HepG2 PKM2 KO cell lysate PKL activity assay; conditions: HepG2 PKM2 KO cells, 48 h, mean ± SE n=3
Method: These predominantly express PKL.
HepG2 PKM2 KO cells (Synthego) were plated in 6 well plates at cell densities of 2 x 10^5 cells/well and incubated for 24 h at 37 °C and 5% CO2. Compounds were added to the cells in different concentrations (0.1, 1, 10 µM) and the cells were further incubated for 48 h. The control cells received DMSO as vehicle.
Cells were washed with PBS, lysed on ice with 200 µL/well PK assay buffer. […] Pyruvate kinase (PK) activity of the cell lysates (10 µg total protein) was analyzed by using the PK assay kit from abcam (ab83432) according to manufacturer´s instructions. The PKL activity in the cell lysates treated with the compounds was expressed as a percentage of the PK activity in the vehicle.

HEK293 cells = assay: HEK293 cell viability assay (CellTiter-Glo 2.0); assay type: cell-based; conditions: 2 h
Method: Finally, the effects of tracer IV on cell viability were assessed. HEK293 cells were treated with IV at concentrations of 0, 0.01, 0.1, 1, and 10 µM for 2 h, after which cells were lysed, and intracellular ATP levels were quantified using the CellTiter‐Glo 2.0 assay (Figure S8a).
Figure S8. Cell viability assay (CellTiter-Glo 2.0) of HEK293 cells treated with different concentrations of tracer IV. (A) Cell viability assay performed on HEK293 cells incubated for 2 h with different concentrations of tracer IV or DMSO (0 nM IV) in FluoroBrite™ DMEM complete medium. Results are reported as relative luminescence values (mean ± SE, n=4, One Way ANOVA followed by Dunnett´s multiple comparison test). […] Results are reported as relative luminescence values (mean ± SE, n=4, One Way ANOVA followed by Dunnett´s multiple comparison test). […] Results are reported as relative luminescence values (mean ± SE, n=4, One Way ANOVA followed by Dunnett´s multiple comparison test).
The effect of tracer IV on cell viability was assessed using CellTiter-Glo 2.0 assay (Promega). This is a method that determines the number of viable cells by quantifying the amount of ATP in the metabolically active cells. […] Mono-oxygenation of luciferin catalyzed by luciferase in the presence of ATP will generate light which could be measured by luminometer. […]

PKLNluc [1] = target: T1, PKLNluc (Homo sapiens, UniProt P30613); assay: Live-cell NanoBRET assay in HEK293 cells; assay type: cell-based; design: host or cells: HEK293, transient transfection
Method: To investigate the intracellular interaction of tracer IV with PKLNluc, we prepared a mammalian expression construct, fusing Nluc to the N‐terminus of PKL. […] As a negative control for NanoBRET experiments, a construct expressing Nluc alone (without PKL) was also prepared.
Additionally, cell viability assays were conducted on cells transfected with either PKLNluc or Nluc plasmids and incubated with tracer IV (Figure S4b,c).
HEK293 cells were passed one day before transfection. The concentration of cells was adjusted to 2x10^5 cells/ml in Opti-MEM™ without phenol red (Invitrogen) supplemented with 1% FBS (Hyclone). Cells (4x10^6) were reversed transfected with 1 µg of PKLNluc plasmid or 1 µg Nluc plasmid and 9 µg of carrier DNA (Promega) using 30 µL of Fugene HD transfection reagent (Promega). […] Work solutions (100x) of tracer IV were prepared from DMSO stocks and further diluted to 20x concentrations with Tracer buffer (Promega). Twenty-five hours after transfection, the cells were treated with 5 µL/well of each of 20x concentrations of the tracer (final concentrations in the assay were in the range 0.001-1 µM, depending on the experiment). Thereafter, 10 µL of 10x solutions of competitors (diluted in Opti-MEM™ medium from stocks of 100x prepared in DMSO) were added to some sets of cells, while the other set received only Opti-MEM™ containing 1% DMSO. The cells were incubated for 2 h at 37°C (5% CO2). […] For each sample well, BRET ratios were calculated using the following formula:
BRET ratio mBU= AcceptorSDonorS-AcceptorNTDonorNT
Where AcceptorS is the luminescence intensity of the sample well at 550 nm, DonorS is the luminescence of the sample well at 450 nm, and AcceptorNT and DonorNT are the luminescence of the no-tracer control at 550 nm and 450 nm respectively.

PKLNluc [2] = target: T1, PKLNluc; assay: NanoBRET with recombinant PKLNluc; conditions: tracer IV 100 nM, 450/550 nm, ± mitapivat
Method: Due to the low quantum yield of SBD‐containing IV (Table S1), we optimized the plate reader settings for the NanoBRET assay to maximize the signal‐to‐background (S/B) ratio. The fluorescence excitation spectrum of tracer IV overlapped with the emission band of PKLNluc (Figure 5a), prompting the screening of wavelength pairs within 400–600 nm.
The donor/acceptor wavelength pairs were recorded at 450/470 nm, 550/510 nm, 450/530 nm, 450/550 nm, 450/610 nm, 450/630 nm and 400/470 nm respectively. For each sample well, BRET ratios were calculated using the following formula:
Where AcceptorS is the luminescence intensity (FI) of the sample well at 550 nm, DonorS is the FI of the sample well at 450 nm, and AcceptorNT and DonorNT are the FI of the no-tracer control at 550 nm and 450 nm respectively.

PKM2 = PKM2 (Homo sapiens, UniProt P14618); assay: Surface plasmon resonance, PKM2
Sequence of PKM2 (P14618 whole entry): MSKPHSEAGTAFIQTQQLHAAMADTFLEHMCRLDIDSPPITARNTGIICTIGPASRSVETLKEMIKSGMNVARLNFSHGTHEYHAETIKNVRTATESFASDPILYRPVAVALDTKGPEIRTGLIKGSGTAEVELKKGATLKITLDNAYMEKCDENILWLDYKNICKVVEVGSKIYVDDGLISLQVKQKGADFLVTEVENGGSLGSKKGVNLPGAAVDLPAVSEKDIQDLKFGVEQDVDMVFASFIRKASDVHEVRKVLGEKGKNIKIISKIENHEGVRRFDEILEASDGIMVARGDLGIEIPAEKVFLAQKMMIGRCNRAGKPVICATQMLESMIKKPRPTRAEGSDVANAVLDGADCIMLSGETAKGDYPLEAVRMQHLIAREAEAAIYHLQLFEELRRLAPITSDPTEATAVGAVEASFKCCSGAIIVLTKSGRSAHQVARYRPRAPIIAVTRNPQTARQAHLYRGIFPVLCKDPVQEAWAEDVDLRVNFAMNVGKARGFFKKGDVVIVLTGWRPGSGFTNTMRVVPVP

T1 sequence (P30613 1-543 isoform P30613-2): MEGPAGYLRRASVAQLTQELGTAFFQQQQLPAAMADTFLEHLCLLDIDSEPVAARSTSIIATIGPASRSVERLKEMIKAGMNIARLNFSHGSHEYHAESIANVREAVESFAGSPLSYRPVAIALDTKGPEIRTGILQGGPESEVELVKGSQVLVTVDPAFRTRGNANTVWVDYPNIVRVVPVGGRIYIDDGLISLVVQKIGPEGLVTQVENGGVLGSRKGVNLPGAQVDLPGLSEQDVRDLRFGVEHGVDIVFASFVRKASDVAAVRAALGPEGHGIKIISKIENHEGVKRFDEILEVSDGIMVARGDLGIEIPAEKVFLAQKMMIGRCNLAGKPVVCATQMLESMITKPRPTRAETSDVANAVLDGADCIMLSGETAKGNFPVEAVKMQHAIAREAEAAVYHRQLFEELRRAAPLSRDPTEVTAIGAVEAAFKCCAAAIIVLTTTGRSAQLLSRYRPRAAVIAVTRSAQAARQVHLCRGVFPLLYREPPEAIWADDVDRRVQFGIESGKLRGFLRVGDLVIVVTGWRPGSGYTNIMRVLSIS
Sequence of PKL (P30613 1-543 isoform P30613-2): as above

CN(C)c1ccc(S(=O)(=O)c2ccc3c(=O)n(Cc4cc[nH]n4)ncc3c2)c2nonc12 [Compound IV, 2-((1H-Pyrazol-3-yl)methyl)-6-((7-(dimethylamino)benzo[c][1,2,5]oxadiazol-4-yl)sulfonyl)phthalazin-1(2H)-one]
PKL activities (% of vehicle) 0.1 µM (PKL; 0.1 µM): 108 ± 3 % of vehicle | PKL activities (% of vehicle) 1 µM (PKL; 1 µM): 146 ± 4 % of vehicle | PKL activities (% of vehicle) 10 µM (PKL; 10 µM): 242 ± 7 % of vehicle | effect on cell viability (intracellular ATP) (HEK293 cells; HEK293, 0.01-10 µM): does not affect cell viability | effect on viability of transfected cells (HEK293 cells; HEK293 transfected with PKLNluc or Nluc plasmids, up to highest tested concentration): did not affect the viability | tracer concentration above which nonspecific binding signals emerged (PKLNluc [1]; HEK293, PKLNluc): exceeding 400 nM | EC50 (PKLNluc [1]; HEK293 transfected with PKLNluc, 2 h 37 °C, displacement control (20 µM mitapivat) subtracted, read-out: EC50 (cell), tracer titration, specific BRET signal): 18.4 nM | BRET assay window (PKLNluc [2]): 39 mBU | Kd (PKM2): 1370 ± 218 nM | koff (PKM2; read-out: k off SPR (PKM2)): 0.0133 s⁻¹ | kon (PKM2; read-out: k on SPR (PKM2)): 9830 M⁻¹ s⁻¹
